According to PMC12261321, “Inhibitors of the Bacterioferritin Ferredoxin Complex Dysregulate Iron Homeostasis and Kill and Biofilm-Embedded Cells” (ACS Infectious Diseases, 2025):
“And” between values parts separate entries of the source, which are not always exact repeats. Equal entries are not always repeated.

Columns and labels:
[1] = test system: A. baumannii 5075; assay: Checkerboard assay; type: cell-based
Protocol: To carry out the serial dilution from the highest compound concentration, a 150 μ L solution of higher concentration compound or antibiotic was mixed with 150 μ L of cell suspension containing […] Th e 96 well plate was in cubated for 20 hat 35 °C with continuous orbital shaking (205 cpm) in an Epoch2 microplate reader (BioTek), monitoring the growth by following the OD600. […] All assays were p erfo rmed in three biological replicates, each with three […] replicates. Checkerboard Assay. […] CFU/mL. […] in the vertical and hori zontal direction, respectivel y. Bacterial suspensions were […] escrib ed above fo r the MIC determination and added to the plates. […] The 96-well […] cubated for 20 h at 35 °C with continuous orbital shaking (205 cpm) in an Epoch2 microplate reader (BioTek), monitoring the growth by following the OD600. The MIC values of inhibitor and antibiotic were obtained from the corresponding row or column which contained only one component, whereas the remaining rows and columns were utilized for calculating the fractional inhibitory concentration index (FIC) with the aid of equation […] = […]2 Time Kill Assays. Time-kill assays were performed with A. baumannii 507 5 by the broth macro- dilution method […] An overnight culture was diluted to approximately 5 x10^5 CFU/mL in fresh […] media. […] DMSO, or by the addition of antibiotic dissolved in water and a small volume of DMSO to produce the desired S7

[2] = test system: A. baumannii 5075; assay: Time kill assays; type: cell-based; conditions: for rate of killing: each agent at its MIC
Protocol: dissolved in DMSO, such that the resultant solution had the highest concentration of compound or antibiotic tested and 1.5% DMSO. To carry out the serial dilution from the highest compound concentration, a 150 μ L solution of higher concentration compound or antibiotic was mixed with 150 μ L of cell suspension containing 1.5% DMSO in the wells of a 96 well plate.
Th e 96 well plate was in cubated for 20 hat 35 °C with continuous orbital shaking (205 cpm) in an Epoch2 microplate reader (BioTek), monitoring the growth by […]
following the OD600. […]
Time Kill Assays. Time-kill assays were performed with A. baumannii 507 5 by the broth macro- dilution method in M63- medium containing 1.5% DMSO. An overnight culture was diluted to approximately 5 x10^5 CFU/mL in fresh M63 media. The test solutions were prepared by adding compound (KM-5- 35, or KM-5- 25) dissolved in DMSO to 5 mL of diluted cell suspension to yield a solution of the desired compound concentration and 1.5% DMSO, or by the addition of antibiotic dissolved in water and a small volume of DMSO to produce the desired […]
antibiotic concentration and 1.5% DMSO. Controls containing the diluted cell suspension, 1.5% DMSO but no test compounds were also prepared. […]
800 µL of the suspension was lay ered onto 700 µL of chilled silicon oil contained in 1.5 mL Eppendo rf tubes and then centrifuged at 4 °C ( 900 x g) for 10 min, then again at 16,200 x g for 5 min to allow pass ag e of the cell suspension through the silicon oil layer. The aqueous and oil layers were removed, and the cell pellet was washed twice in PBS (800 μ L), each time transferring the cell suspension to a new Eppendorf tube and then centrifuging at 16,200 x g. The cell pellet was lysed in 800 µL methanol by vortexing followed by 10 min incubationat room temperatur e. The lysate suspension was pelleted, the supernatant was transferred to a new Eppendorf tube and then placed into a vacuum concentrator (Eppendorf 5301 Vacufuge) to evaporate the methanol (4 h). The dried

Row | Compound | FIC ([1]; KM-5–25 with colistin, 5075 (Figure S3)) | FIC ([1]; KM-5–25 with imipenem, 5075 (Figure S3)) | time kill outcome ([2]; compound at 1 × MIC) | time kill outcome ([2]; compound at 1.5 × MIC (limit of aqueous solubility)) | reduction of viable cells (CFU/mL) relative to the inoculum ([2]; compound at the MIC) | time to approximately 3log10 reduction of viable cells ([2]; compound at the MIC) | rate of killing [2] | FIC ([1]; KM-5–35 with ceftazidime, 5075) | FIC ([1]; KM-5–35 with ciprofloxacin, 5075) | FIC ([1]; KM-5–35 with meropenem, 5075) | FIC ([1]; KM-5–35 with tobramycin, 5075) | MIC alone ([1]; agent alone, 5075, KM-5–35 14 μg/mL = 40 μM) | MIC of KM-5–35 in combination ([1]; in combination with ceftazidime, 5075) | MIC of KM-5–35 in combination ([1]; in combination with ciprofloxacin, 5075) | MIC of KM-5–35 in combination ([1]; in combination with imipenem, 5075) | MIC of KM-5–35 in combination ([1]; in combination with tobramycin, 5075)
1 | O=C1NC(=O)c2c(NCc3cc(Cl)ccc3O)cccc21 [KM-5-25, 4-((5-Chloro-2-hydroxybenzyl)amino)isoindoline-1,3-dione] | 0.36 and 0.38 | 0.63 | cell growth is observed at later hours | bactericidal | approximately 3 log10 | approximately 3 h | slower than that observed with KM-5–35 | – | – | – | – | – | – | – | – | –
2 | O=C1NC(=O)c2c(NCc3cc(Br)ccc3O)cccc21 [KM-5-35, 4-((5-Bromo-2-hydroxybenzyl)amino)isoindoline-1,3-dione] | – | – | bactericidal | – | > 3 log10 | – | faster than meropenem but slower than colistin | 0.50 | 0.53 | 0.50 | 0.50 | 14 µg/mL | 7 µg/mL | 7 µg/mL | 3.5 µg/mL | 7 µg/mL
